Laboratory results published in ChEMBL document CHEMBL5678818, “Discovery of potent SOS1 inhibitors that block RAS activation via disruption of the RAS-SOS1 interaction” (Proc Natl Acad Sci U S A, 2019).

Tests used:
[1] = molecular target: T1, Interleukin-1 receptor-associated kinase 3 (Homo sapiens) (UniProt Q9Y616); experiment: Inhibition of IRAK3 (unknown origin) assessed as residual activity at 100 nM by KINOMEscan analysis relative to control
T1 sequence (whole entry): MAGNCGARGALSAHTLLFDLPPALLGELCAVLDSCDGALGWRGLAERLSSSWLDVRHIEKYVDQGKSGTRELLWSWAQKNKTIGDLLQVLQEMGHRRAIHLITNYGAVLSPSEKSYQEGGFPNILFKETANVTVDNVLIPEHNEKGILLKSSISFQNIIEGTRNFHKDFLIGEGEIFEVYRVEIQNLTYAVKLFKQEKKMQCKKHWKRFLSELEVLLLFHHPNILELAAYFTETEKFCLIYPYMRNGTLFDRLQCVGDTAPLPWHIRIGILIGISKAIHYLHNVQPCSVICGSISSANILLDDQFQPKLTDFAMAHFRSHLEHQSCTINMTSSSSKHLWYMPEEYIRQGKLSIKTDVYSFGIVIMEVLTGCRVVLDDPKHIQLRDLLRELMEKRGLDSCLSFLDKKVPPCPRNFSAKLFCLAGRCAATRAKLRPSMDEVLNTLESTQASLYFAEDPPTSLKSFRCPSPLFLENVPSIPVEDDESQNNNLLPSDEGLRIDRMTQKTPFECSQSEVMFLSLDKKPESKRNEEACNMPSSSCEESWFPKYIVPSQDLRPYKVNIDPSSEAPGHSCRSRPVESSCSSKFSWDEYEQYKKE

[2] = molecular target: Tyrosine-protein kinase ABL1 (Homo sapiens) (UniProt P00519); experiment: Inhibition of phosphorylated ABL1 (unknown origin) assessed as residual activity at 100 nM by KINOMEscan analysis relative to control
Chain of Tyrosine-protein kinase ABL1 (Homo sapiens) (P00519 whole entry, canonical isoform): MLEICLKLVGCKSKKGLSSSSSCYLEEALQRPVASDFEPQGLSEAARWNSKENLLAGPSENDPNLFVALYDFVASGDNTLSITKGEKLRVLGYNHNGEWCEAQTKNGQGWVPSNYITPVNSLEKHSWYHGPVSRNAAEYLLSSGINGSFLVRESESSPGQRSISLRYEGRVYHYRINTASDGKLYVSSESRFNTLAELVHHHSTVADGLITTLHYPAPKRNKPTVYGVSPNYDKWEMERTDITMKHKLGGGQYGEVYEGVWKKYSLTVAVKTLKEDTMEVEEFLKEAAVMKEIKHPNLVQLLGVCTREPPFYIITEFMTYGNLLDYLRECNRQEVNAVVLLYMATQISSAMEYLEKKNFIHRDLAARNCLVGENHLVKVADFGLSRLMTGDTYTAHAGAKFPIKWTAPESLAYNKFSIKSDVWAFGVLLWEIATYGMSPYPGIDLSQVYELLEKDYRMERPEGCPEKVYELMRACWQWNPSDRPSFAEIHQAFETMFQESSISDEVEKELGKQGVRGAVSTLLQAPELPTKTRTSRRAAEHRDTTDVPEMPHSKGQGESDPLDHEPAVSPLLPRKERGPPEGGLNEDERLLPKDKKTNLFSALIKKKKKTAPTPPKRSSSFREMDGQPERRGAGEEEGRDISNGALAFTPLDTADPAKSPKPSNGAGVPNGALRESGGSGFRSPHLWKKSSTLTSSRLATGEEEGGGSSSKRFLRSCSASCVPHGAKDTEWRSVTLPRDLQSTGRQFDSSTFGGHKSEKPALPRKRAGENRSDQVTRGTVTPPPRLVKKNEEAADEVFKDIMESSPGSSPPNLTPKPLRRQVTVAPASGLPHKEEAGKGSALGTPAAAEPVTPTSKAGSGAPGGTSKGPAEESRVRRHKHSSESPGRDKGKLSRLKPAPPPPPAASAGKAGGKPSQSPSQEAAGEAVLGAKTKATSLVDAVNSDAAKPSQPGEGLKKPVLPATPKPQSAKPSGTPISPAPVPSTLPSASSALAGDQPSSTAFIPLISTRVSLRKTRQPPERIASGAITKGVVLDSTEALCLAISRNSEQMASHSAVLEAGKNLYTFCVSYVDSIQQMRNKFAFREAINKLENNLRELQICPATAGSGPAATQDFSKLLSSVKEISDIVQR

[3] = molecular target: T2, Phosphatidylinositol 4,5-bisphosphate 3-kinase catalytic subunit delta isoform (Homo sapiens) (UniProt O00329); experiment: Inhibition of PIK3CD (unknown origin) assessed as residual activity at 100 nM by KINOMEscan analysis relative to control
T2 sequence (whole entry): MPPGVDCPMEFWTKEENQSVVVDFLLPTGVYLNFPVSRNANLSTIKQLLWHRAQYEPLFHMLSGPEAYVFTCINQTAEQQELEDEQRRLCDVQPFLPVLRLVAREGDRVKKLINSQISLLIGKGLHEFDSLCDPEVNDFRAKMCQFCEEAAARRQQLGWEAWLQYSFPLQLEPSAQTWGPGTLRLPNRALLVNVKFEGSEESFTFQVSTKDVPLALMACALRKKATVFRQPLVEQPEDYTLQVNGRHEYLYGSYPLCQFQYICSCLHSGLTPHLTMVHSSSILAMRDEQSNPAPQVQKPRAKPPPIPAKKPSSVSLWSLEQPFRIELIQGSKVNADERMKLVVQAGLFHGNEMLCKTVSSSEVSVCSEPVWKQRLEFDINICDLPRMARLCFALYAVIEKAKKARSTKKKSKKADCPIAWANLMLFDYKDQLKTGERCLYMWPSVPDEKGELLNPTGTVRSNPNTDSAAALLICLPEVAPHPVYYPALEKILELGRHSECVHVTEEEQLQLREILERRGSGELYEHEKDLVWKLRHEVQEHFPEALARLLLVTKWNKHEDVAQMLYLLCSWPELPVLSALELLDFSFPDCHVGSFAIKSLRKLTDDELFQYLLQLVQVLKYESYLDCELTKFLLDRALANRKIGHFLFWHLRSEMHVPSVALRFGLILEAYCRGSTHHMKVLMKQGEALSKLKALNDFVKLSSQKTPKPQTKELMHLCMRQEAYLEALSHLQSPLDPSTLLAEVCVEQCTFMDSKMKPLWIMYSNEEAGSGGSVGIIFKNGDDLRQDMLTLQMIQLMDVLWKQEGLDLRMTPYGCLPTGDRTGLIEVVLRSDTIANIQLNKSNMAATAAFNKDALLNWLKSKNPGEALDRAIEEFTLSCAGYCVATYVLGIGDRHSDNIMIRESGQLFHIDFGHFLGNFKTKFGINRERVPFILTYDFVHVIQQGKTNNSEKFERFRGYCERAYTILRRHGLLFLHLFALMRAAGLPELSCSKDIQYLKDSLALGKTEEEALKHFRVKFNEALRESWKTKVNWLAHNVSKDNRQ

[4] = molecular target: Cyclin-dependent kinase 5 (Homo sapiens) (UniProt Q00535); experiment: Inhibition of CDK5 (unknown origin) assessed as residual activity at 100 nM by KINOMEscan analysis relative to control
Chain of Cyclin-dependent kinase 5 (Homo sapiens) (Q00535 whole entry, looked up): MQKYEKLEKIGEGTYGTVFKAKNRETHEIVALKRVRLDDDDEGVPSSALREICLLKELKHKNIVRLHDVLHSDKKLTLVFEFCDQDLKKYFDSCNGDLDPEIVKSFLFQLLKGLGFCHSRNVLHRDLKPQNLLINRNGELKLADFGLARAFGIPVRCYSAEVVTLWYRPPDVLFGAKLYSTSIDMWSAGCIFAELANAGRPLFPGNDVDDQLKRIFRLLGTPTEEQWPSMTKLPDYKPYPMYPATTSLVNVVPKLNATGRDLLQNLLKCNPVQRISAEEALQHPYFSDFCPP

[5] = molecular target: Serine/threonine-protein kinase 38 (Homo sapiens) (UniProt Q15208); experiment: Inhibition of NDR1 (unknown origin) assessed as residual activity at 100 nM by KINOMEscan analysis relative to control
Chain of Serine/threonine-protein kinase 38 (Homo sapiens) (Q15208 2-465 limits assumed): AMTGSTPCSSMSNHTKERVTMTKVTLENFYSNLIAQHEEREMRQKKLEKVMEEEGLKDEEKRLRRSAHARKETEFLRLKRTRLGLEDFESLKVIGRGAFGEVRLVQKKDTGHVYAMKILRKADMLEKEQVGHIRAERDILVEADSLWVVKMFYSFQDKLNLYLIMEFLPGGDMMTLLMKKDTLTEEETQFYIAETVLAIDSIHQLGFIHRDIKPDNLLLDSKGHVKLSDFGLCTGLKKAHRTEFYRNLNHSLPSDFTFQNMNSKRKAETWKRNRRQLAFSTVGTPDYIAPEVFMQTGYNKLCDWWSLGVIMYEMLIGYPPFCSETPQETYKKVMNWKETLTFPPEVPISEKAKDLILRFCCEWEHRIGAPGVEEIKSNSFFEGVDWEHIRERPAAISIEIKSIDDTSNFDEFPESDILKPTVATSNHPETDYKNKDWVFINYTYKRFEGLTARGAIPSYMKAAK

[6] = molecular target: T3, Bone morphogenetic protein receptor type-2 (Homo sapiens) (UniProt Q13873); experiment: Inhibition of BMPR2 (unknown origin) assessed as residual activity at 100 nM by KINOMEscan analysis relative to control
T3 sequence (whole entry): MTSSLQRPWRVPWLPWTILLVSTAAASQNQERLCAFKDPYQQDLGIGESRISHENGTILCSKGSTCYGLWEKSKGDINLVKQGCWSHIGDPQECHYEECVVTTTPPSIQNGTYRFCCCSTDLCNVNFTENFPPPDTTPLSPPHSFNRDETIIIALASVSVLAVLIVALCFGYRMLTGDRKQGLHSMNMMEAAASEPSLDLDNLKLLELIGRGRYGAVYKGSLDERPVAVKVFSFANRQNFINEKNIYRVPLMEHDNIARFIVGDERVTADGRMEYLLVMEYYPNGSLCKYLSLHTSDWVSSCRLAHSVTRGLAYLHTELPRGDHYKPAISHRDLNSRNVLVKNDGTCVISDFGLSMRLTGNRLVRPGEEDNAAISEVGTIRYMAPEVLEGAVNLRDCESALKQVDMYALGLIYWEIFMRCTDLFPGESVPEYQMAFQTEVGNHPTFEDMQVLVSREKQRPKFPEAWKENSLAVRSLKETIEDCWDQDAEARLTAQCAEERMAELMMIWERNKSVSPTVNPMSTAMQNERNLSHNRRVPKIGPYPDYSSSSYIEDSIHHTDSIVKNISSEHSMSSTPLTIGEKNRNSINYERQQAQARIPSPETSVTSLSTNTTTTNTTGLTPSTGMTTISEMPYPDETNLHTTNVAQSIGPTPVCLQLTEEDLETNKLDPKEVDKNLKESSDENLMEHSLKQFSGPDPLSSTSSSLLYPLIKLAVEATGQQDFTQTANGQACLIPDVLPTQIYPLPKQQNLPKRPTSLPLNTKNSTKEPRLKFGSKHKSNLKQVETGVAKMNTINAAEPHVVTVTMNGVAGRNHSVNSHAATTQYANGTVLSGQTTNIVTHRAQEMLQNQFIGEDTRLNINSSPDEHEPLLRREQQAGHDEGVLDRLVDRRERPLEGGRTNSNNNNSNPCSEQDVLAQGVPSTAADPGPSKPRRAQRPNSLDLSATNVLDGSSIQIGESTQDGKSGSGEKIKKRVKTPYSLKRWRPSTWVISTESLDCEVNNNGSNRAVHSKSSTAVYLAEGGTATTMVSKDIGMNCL

SMILES: COc1cc2ncnc(N[C@H](C)c3cccc4ccccc34)c2cc1OC
- Activity [1]: 100%
- Activity [2]: 93%
- Activity [3]: 87%
- Activity [4]: 83%
- Activity [5]: 80%
- Activity [6]: 97%
